Source: patent US7138361B2, “Herbicidal heterocycles” (E. I. du Pont de Nemours and Company, priority 2000, dated 2006)

Tests used:
Assay type in all cases: in vivo
[1] = system: morningglory (Ipomoea hederacea); experiment: Test C preemergence; settings: for Plant response rating (0 to 100), Morningglory: Rate 500 g/ha, visual evaluation after 12 to 14 days
Source text: (§1) Seeds of plant species selected from bermudagrass (Cynodon dactylon), Surinam grass (Brachiaria decumbens), cocklebur (Xanthium strumarium), corn (Zea mays), crabgrass (Digitaria sanguinalis), woolly cupgrass (Eriochloa villosa), giant foxtail (Setaria faberii), goosegrass (Eleusine indica), johnsongrass (Sorghum halepense), kochia (Kochia scoparia), lambsquarters (Chenopodium album), morningglory (Ipomoea hederacea), yellow nutsedge (Cyperus esculentus), pigweed (Amaranthus retroflexus), common ragweed (Ambrosia elatior), soybean (Glycine max) and velvetleaf (Abutilon theophrasti) were planted and treated preemergence with test chemicals formulated in a non-phytotoxic solvent mixture which included a surfactant.
(§2) At the same time, plants selected from these crop and weed species and also winter barley (Hordeum vulgare), blackgrass (Alopecurus myosuroides), canary grass (Phalaris minor), chickweed (Stellaria media), downy brome (Bromus tectorum), green foxtail (Setaria viridis), Italian ryegrass (Lolium multiflorum), wheat (Triticum aestivum), wild oat (Avena fatua) and windgrass (Apera spica-venti) were treated with postemergence applications of some of the test chemicals formulated in the same manner. Plants ranged in height from 2 to 18 cm (1- to 4-leaf stage) for postemergence treatments. Plant species in the flooded paddy test consisted of rice (Oryza saliva), smallflower flatsedge (Cyperus difformis), duck salad (Heteranthera limosa) and barnyardgrass (Echinochloa crus-galli) grown to the 2-leaf stage for testing. Treated plants and controls were maintained in a greenhouse for 12 to 14 days, after which time all species were compared to controls and visually evaluated. Plant response ratings, summarized in Table C, are based on a scale of 0 to 100 where 0 is no effect and 100 is complete control. A dash (-) response means no test result.

[2] = system: common ragweed (Ambrosia elatior); experiment: Test C preemergence; settings: preemergence; for Plant response rating (0 to 100), Ragweed, Common: Rate 500 g/ha, visual evaluation after 12 to 14 days
Source text: as §1, §2

[3] = system: bermudagrass (Cynodon dactylon); experiment: Test C preemergence; settings: for Plant response rating (0 to 100 where 0 is no effect and 100 is complete control), Bermudagrass: visual evaluation after 12 to 14 days
Source text: as §1, §2

[4] = system: cocklebur (Xanthium strumarium); experiment: Test C preemergence; settings: for Plant response rating (0 to 100), Cocklebur: visual evaluation after 12 to 14 days
Source text: as §1, §2

[5] = system: velvetleaf (Abutilon theophrasti); experiment: Test C preemergence; settings: preemergence; for Plant response rating (0 to 100), Velvetleaf: Rate 500 g/ha, visual evaluation after 12 to 14 days
Source text: as §1, §2

[6] = system: giant foxtail (Setaria faberii); experiment: Test C preemergence; settings: for Plant response rating (0 to 100), Foxtail, Giant: visual evaluation after 12 to 14 days
Source text: as §1, §2

[7] = system: Surinam grass (Brachiaria decumbens); experiment: Test C preemergence; settings: for Plant response rating (0 to 100), Surinam grass: visual evaluation after 12 to 14 days
Source text: as §1, §2

[8] = system: crabgrass (Digitaria sanguinalis); experiment: Test C preemergence; settings: for Plant response rating (0 to 100), Crabgrass: visual evaluation after 12 to 14 days
Source text: as §1, §2

[9] = system: goosegrass (Eleusine indica); experiment: Test C preemergence; settings: for Plant response rating (0 to 100), Goosegrass: visual evaluation after 12 to 14 days
Source text: as §1, §2

[10] = system: Sunflower; experiment: Test C preemergence; settings: Rate 500 g/ha, visual evaluation after 12 to 14 days
[11] = system: cocklebur (Xanthium strumarium); experiment: Test B preemergence
Procedure, shortened: (§3)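 Ratings on a 0 to 100 visual scale (100 complete control) compare treated plants with controls 13 to 15 days after application. Treatments were pre- or postemergence sprays of compound in non-phytotoxic solvent with surfactant.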

[12] = system: morning glory (Ipomoea hederacea); experiment: Test B preemergence
Procedure, shortened: as §3

[13] = system: velvetleaf (Abutilon theophrasti); experiment: Test B preemergence
Procedure, shortened: as §3

[14] = system: giant foxtail (Setaria faberii); experiment: Test B preemergence
Procedure, shortened: as §3

[15] = system: Surinam grass (Brachiaria decumbens); experiment: Test B preemergence
Procedure, shortened: as §3

[16] = system: barnyardgrass (Echinochloa crus-galli); experiment: Test B preemergence
Procedure, shortened: as §3

[17] = system: rice (Oryza saliva); experiment: Test B preemergence
Procedure, shortened: as §3

[18] = system: crabgrass (Digitaria sanguinalis); experiment: Test B preemergence
Procedure, shortened: as §3

[19] = system: corn (Zea mays); experiment: Test B preemergence
Procedure, shortened: as §3

[20] = system: pigweed (Amaranthus retroflexus); experiment: Test B preemergence
Procedure, shortened: as §3

[21] = system: lambsquarters (Chenopodium album); experiment: Test B preemergence
Procedure, shortened: as §3

[22] = Rate 62 g/ha, scale 0 to 100, 0 no effect, 100 complete control
[23] = preemergence, Rate 125 g/ha, scale 0 to 100, 0 no effect, 100 complete control
[24] = preemergence, Rate 250 g/ha, scale 0 to 100, 0 no effect, 100 complete control
[25] = Rate 125 g/ha, scale 0 to 100, 0 no effect, 100 complete control
[26] = Rate 250 g/ha, scale 0 to 100, 0 no effect, 100 complete control
[27] = Preemergence, Rate 500 g/ha, scale 0 to 100, 0 no effect, 100 complete control
[28] = preemergence, Rate 125 g/ha, scale of 0 to 100 where 0 is no effect and 100 is complete control, 13 to 15 days
[29] = preemergence, Rate 31 g/ha, scale 0 to 100

## COc1cc(OC)cc(N2CCC(n3ccc(C(C)(C)C)n3)C2=O)c1 (centres unmarked) [Compound 71]
[1]; [22]
  Plant response rating, Morningglory: 0
[1]; preemergence
  Plant response rating (0 to 100), Morningglory: 0
[1]; [23]
  Plant response rating, Morningglory: 0
[1]; [24]
  Plant response rating, Morningglory: 0
[2]
  Plant response rating (0 to 100), Ragweed, Common: 30
[2]; [25]
  Plant response rating, Ragweed, Common: 0
[2]; [26]
  Plant response rating, Ragweed, Common: 0
[3]; [22]
  Plant response rating, Bermudagrass: 30
[3]; preemergence, Rate 250 g/ha
  Plant response rating (0 to 100 where 0 is no effect and 100 is complete control), Bermudagrass: 100
[3]; preemergence, Rate 500 g/ha
  Plant response rating (0 to 100 where 0 is no effect and 100 is complete control), Bermudagrass: 100
[3]; [23]
  Plant response rating, Bermudagrass: 90
[4]; [22]
  Plant response rating, Cocklebur: 0
[4]; preemergence, Rate 250 g/ha
  Plant response rating (0 to 100), Cocklebur: 30
[4]; preemergence, Rate 500 g/ha
  Plant response rating (0 to 100), Cocklebur: 30
[4]; [23]
  Plant response rating, Cocklebur: 0
[5]
  Plant response rating (0 to 100), Velvetleaf: 0
[5]; [25]
  Plant response rating, Velvetleaf: 0
[5]; [26]
  Plant response rating, Velvetleaf: 0
[6]; [22]
  Plant response rating, Foxtail, Giant: 0
[6]; preemergence, Rate 250 g/ha
  Plant response rating (0 to 100), Foxtail, Giant: 0
[6]; preemergence, Rate 500 g/ha
  Plant response rating (0 to 100), Foxtail, Giant: 100
[6]; [23]
  Plant response rating, Foxtail, Giant: 90
[7]; [22]
  Plant response rating, Surinam grass: 30
[7]; preemergence, Rate 250 g/ha
  Plant response rating (0 to 100), Surinam grass: 50
[7]; preemergence, Rate 500 g/ha
  Plant response rating (0 to 100), Surinam grass: 90
[7]; [23]
  Plant response rating, Surinam grass: 30
[8]; [22]
  Plant response rating, Crabgrass: 40
[8]; preemergence, Rate 250 g/ha
  Plant response rating (0 to 100), Crabgrass: 100
[8]; preemergence, Rate 500 g/ha
  Plant response rating (0 to 100), Crabgrass: 100
[8]; [23]
  Plant response rating, Crabgrass: 100
[9]; [22]
  Plant response rating, Goosegrass: 30
[9]; preemergence, Rate 250 g/ha
  Plant response rating (0 to 100), Goosegrass: 100
[9]; preemergence, Rate 500 g/ha
  Plant response rating (0 to 100), Goosegrass: 100
[9]; [23]
  Plant response rating, Goosegrass: 90
[10]
  Plant response rating (0 to 100), Sunflower: 20
[11]; [27]
  Plant response rating, Cocklebur: 0
[11]; [28]
  Plant response rating, Cocklebur: 0
[12]; [27]
  Plant response rating, Morningglory: 0
[12]; [28]
  Plant response rating, Morningglory: 0
[13]; [27]
  Plant response rating, Velvetleaf: 30
[13]; [28]
  Plant response rating, Velvetleaf: 0
[14]; [27]
  Plant response rating, Foxtail, Giant: 100
[14]; [28]
  Plant response rating, Foxtail, Giant: 90
[15]; [27]
  Plant response rating, Surinam grass: 40
[15]; [28]
  Plant response rating, Surinam grass: 40
[16]; [27]
  Plant response rating, Barnyardgrass: 90
[16]; [28]
  Plant response rating, Barnyardgrass: 10
[17]; [27]
  Plant response rating, Rice: 40
[17]; [28]
  Plant response rating, Rice: 20
[18]; [27]
  Plant response rating, Crabgrass: 100
[18]; [28]
  Plant response rating, Crabgrass: 50
[19]; [27]
  Plant response rating, Corn: 20
[19]; [28]
  Plant response rating, Corn: 0
[20]; [27]
  Plant response rating, Pigweed: 100
[20]; [28]
  Plant response rating, Pigweed: 100
[21]; [27]
  Plant response rating, Lambsquarters: 100
[21]; [28]
  Plant response rating, Lambsquarters: 100

## CC(C)Oc1cccc(N2CCC(n3ccc(C(C)(C)C)n3)C2=O)c1 (centres unmarked) [Compound 70]
[1]; [22]
  Plant response rating, Morningglory: 20
[1]; [29]
  Plant response rating, Morningglory: 0
[1]; preemergence
  Plant response rating (0 to 100), Morningglory: 40
[1]; [23]
  Plant response rating, Morningglory: 0
[1]; [24]
  Plant response rating, Morningglory: 0
[2]; Rate 31 g/ha, scale 0 to 100
  Plant response rating, Ragweed, Common: 0
[2]
  Plant response rating (0 to 100), Ragweed, Common: 100
[2]; [25]
  Plant response rating, Ragweed, Common: 60
[2]; [26]
  Plant response rating, Ragweed, Common: 80
[3]; [22]
  Plant response rating, Bermudagrass: 100
[3]; [29]
  Plant response rating, Bermudagrass: 80
[3]; preemergence, Rate 250 g/ha
  Plant response rating (0 to 100 where 0 is no effect and 100 is complete control), Bermudagrass: 100
[3]; preemergence, Rate 500 g/ha
  Plant response rating (0 to 100 where 0 is no effect and 100 is complete control), Bermudagrass: 100
[3]; [23]
  Plant response rating, Bermudagrass: 100
[4]; [22]
  Plant response rating, Cocklebur: 0
[4]; [29]
  Plant response rating, Cocklebur: 0
[4]; preemergence, Rate 250 g/ha
  Plant response rating (0 to 100), Cocklebur: 0
[4]; preemergence, Rate 500 g/ha
  Plant response rating (0 to 100), Cocklebur: 20
[4]; [23]
  Plant response rating, Cocklebur: 0
[5]; Rate 31 g/ha, scale 0 to 100
  Plant response rating, Velvetleaf: 0
[5]
  Plant response rating (0 to 100), Velvetleaf: 10
[5]; [25]
  Plant response rating, Velvetleaf: 0
[5]; [26]
  Plant response rating, Velvetleaf: 0
[6]; [22]
  Plant response rating, Foxtail, Giant: 100
[6]; [29]
  Plant response rating, Foxtail, Giant: 0
[6]; preemergence, Rate 250 g/ha
  Plant response rating (0 to 100), Foxtail, Giant: 100
[6]; preemergence, Rate 500 g/ha
  Plant response rating (0 to 100), Foxtail, Giant: 100
[6]; [23]
  Plant response rating, Foxtail, Giant: 100
[7]; [22]
  Plant response rating, Surinam grass: 60
[7]; [29]
  Plant response rating, Surinam grass: 20
[7]; preemergence, Rate 250 g/ha
  Plant response rating (0 to 100), Surinam grass: 70
[7]; preemergence, Rate 500 g/ha
  Plant response rating (0 to 100), Surinam grass: 80
[7]; [23]
  Plant response rating, Surinam grass: 70
[8]; [22]
  Plant response rating, Crabgrass: 100
[8]; [29]
  Plant response rating, Crabgrass: 30
[8]; preemergence, Rate 250 g/ha
  Plant response rating (0 to 100), Crabgrass: 100
[8]; preemergence, Rate 500 g/ha
  Plant response rating (0 to 100), Crabgrass: 100
[8]; [23]
  Plant response rating, Crabgrass: 100
[9]; [22]
  Plant response rating, Goosegrass: 90
[9]; [29]
  Plant response rating, Goosegrass: 30
[9]; preemergence, Rate 250 g/ha
  Plant response rating (0 to 100), Goosegrass: 100
[9]; preemergence, Rate 500 g/ha
  Plant response rating (0 to 100), Goosegrass: 100
[9]; [23]
  Plant response rating, Goosegrass: 100
[10]
  Plant response rating (0 to 100), Sunflower: 60
[11]; [27]
  Plant response rating, Cocklebur: 0
[11]; [28]
  Plant response rating, Cocklebur: 0
[12]; [27]
  Plant response rating, Morningglory: 80
[12]; [28]
  Plant response rating, Morningglory: 20
[13]; [27]
  Plant response rating, Velvetleaf: 0
[13]; [28]
  Plant response rating, Velvetleaf: 0
[14]; [27]
  Plant response rating, Foxtail, Giant: 100
[14]; [28]
  Plant response rating, Foxtail, Giant: 90
[15]; [27]
  Plant response rating, Surinam grass: 0
[15]; [28]
  Plant response rating, Surinam grass: 0
[17]; [27]
  Plant response rating, Rice: 30
[17]; [28]
  Plant response rating, Rice: 30
[18]; [27]
  Plant response rating, Crabgrass: 100
[18]; [28]
  Plant response rating, Crabgrass: 90
[20]; [27]
  Plant response rating, Pigweed: 100
[20]; [28]
  Plant response rating, Pigweed: 100
[21]; [27]
  Plant response rating, Lambsquarters: 100
[21]; [28]
  Plant response rating, Lambsquarters: 100
